Measurements reported in patent US10835507B2, “Treatment of muscular disorders with combinations of RXR agonists and thyroid hormones” (Io Therapeutics, Inc., priority 2016, dated 2020).
“Also recorded” adds a separate entry of the source.

What was measured:
[1] = tested on: mouse oligodendrocyte progenitor cells (OPCs); test: Mouse oligodendrocyte progenitor cell differentiation, 5-day treatment, Example 5; assay type: cell-based; conditions: 96-well plates, plp-EGFP mouse OPCs
Description: OPCs were derived from plp-EGFP expressing mice.
Therapeutic agents were tested in 96-well plates (6 wells per concentration). […] All media contained 0.1% DMSO. At the end of the 5-day treatment, cells were imaged on Cellomics in two channels and algorithms were used to count nuclei and EGFP+ oligodendrocytes.

[2] = tested on: spontaneously hypertensive rats (SHRs); test: Cardiac hypertrophy in spontaneously hypertensive rats; assay type: in vivo, rat; conditions: present-tense example; for inhibition of the increase in cardiac mass and wall thickness: SHRs at 12 weeks of age, 10 mg to 100 mg/kg
Description: Four weeks old SHRs and control rats are randomized and put into groups of 5-10 rats/group. […] Transthoratic echocardiographs are performed to determine cardiac weights and measurements.
The animals are sacrificed at 16 weeks of age to determine cardiac hypertrophy. Hypertrophy is determined by the animal's left ventricle weight to body weight ratio. The myocyte cross-sectional area is also determined. Approximately 10 mg to about 30 mg of the animal's left ventricle is homogenized and subject to sodium dodecyl sulfate polyacrylamide gel electrophoresis (SDS-PAGE) and immunoblot analysis.

[3] = tested on: mouse model of non-immune mediated demyelination; test: 6-week cuprizone plus rapamycin demyelination model, corpus callosum histology, Example 7; assay type: in vivo, C57BL/6J mice; conditions: IRX4204 10 mg/kg PO, T4 20 ng/g SQ, daily for 6 weeks during CR
Description: (§1) Animals (8 week-old male C57BL/6J mice) were subjected to cuprizone diet plus rapamycin injections (CR) for 6 weeks to induce demyelination. […] All animals were sacrificed after 6 weeks of CR to evaluate axonal integrity and microglial/macrophage activity in the white matter (corpus callosum, CC).
The floating brain sections were immunostained with SMI-32 to visualize and quantify axonal ovoids in the CC.
The floating brain sections were immunostained with lba-1 to visualize and quantify microglia/macrophages in CC.

[4] = tested on: embryonic stem cells (ES); test: Myogenic conversion of embryonic stem cells (embryoid bodies); assay type: cell-based; conditions: embryoid bodies without DMSO, approximately 1 nM to about 1 μM; present-tense example
Description: To test the potency of RXRs on myogenic conversion of embryonic stem cells (ES), embryoid bodies are formed without DMSO. […] Myoblasts are examined through microscopy and the number of myocytes counted.

[5] = tested on: murine skeletal muscle myoblasts and primary myoblasts; test: Myoblast differentiation; assay type: cell-based; conditions: about 10 nM to about 1 μM; present-tense example
Description: In order to determine and compare the efficacy of IRX4204 and IRX4204+thyroxine in myoblast differentiation, murine skeletal muscle myoblasts and primary myoblasts are cultured. Myogenic differentiation is initiated when cells are approximately 60-80% confluent, with the cells being differentiated into cell types, such as myotubes.

RXRα = target: T1, RXRα (Homo sapiens, UniProt P19793); conditions: RXR receptors vs RAR receptors
T1 sequence (P19793 1-462): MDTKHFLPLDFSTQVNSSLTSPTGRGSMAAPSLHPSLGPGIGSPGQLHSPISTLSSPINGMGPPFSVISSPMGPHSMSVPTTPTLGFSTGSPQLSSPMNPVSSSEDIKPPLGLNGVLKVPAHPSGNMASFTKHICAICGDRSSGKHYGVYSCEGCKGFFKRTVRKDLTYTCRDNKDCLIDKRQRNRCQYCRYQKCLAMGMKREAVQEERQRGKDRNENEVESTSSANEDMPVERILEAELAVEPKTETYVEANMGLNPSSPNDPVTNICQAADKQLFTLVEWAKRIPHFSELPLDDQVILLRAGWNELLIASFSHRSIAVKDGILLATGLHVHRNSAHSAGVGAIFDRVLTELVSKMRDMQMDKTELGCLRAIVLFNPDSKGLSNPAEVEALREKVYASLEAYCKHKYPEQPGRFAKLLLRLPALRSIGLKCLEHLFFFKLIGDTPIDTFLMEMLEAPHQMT
Description: To determine whether a RXR agonist can mediate its effects via RXRα receptor homodimers, RXRβ receptor homodimers, RXRγ receptor homodimers, or any combination thereof, or the corresponding RAR/RXR heterodimers, receptor-mediated transactivation assays were performed. For transactivation assays assessing RXR homodimer signaling, CV-1 cells were transfected with 1) an expression construct including a full length RXRα, RXRβ, or RXRγ; and 2) a rCRBPII/RXRE-tk-Luc reporter construct that included RXR homodimer-specific RXRE/DR1 responsive element linked to a luciferase gene. For transactivation assays assessing RAR/RXR heterodimer signaling, CV-1 cells were transfected with 1) an expression construct comprising a fusion protein including an estrogen receptor (ER) DNA binding domain linked to the ligand binding domain of RARα, RARβ, or RARγ and 2) a ERE-tk-Luc reporter construct that included an estrogen receptor responsive element linked to a luciferase gene. […] Data are mean values±SE from five independent experiments.

[6] = Terminal T4 levels, mortality and body weight in the demyelination study, Example 7; conditions: 6 weeks treatment during CR
Description: as §1
A total of 50 animals were included in the study, where 43 animals received CR demyelination for 6 weeks. During demyelination, a subset (n=7) of animals were kept on normal diet to serve as naïve age-matched controls.

[7] = tested on: oligodendrocyte precursor cells (OPCs); test: Oligodendrocyte precursor cell differentiation (EGFP expression), Example 4; assay type: cell-based, mouse
Description: OPCs were generated from a neurosphere culture of E14.5 PLP-EGFP (on C57BL/6J background) mouse brains. […] The EGFP expressing cells were quantified with Cellomics Neuronal Profiling Algorithm.
The EGFP expressing cells in controls and all compounds were quantified with Cellomics Neuronal Profiling Algorithm.

Pluripotent P19 cells = test: Myogenic differentiation of pluripotent P19 cells; assay type: cell-based; conditions: approximately 1 nM to about 1 μM, 1% DMSO; present-tense example
Description: Cells fixed to cover slips are then incubated with primary antibodies for skeletal muscle markers and then labeled with secondary antibodies. Microscopy analysis is performed and the number of skeletal myocytes quantified.

Compound | production of EGFP+ oligodendrocytes [1] | inhibition of the increase in cardiac mass and wall thickness [2] | RXRα expression in cardiac muscle tissue (immunoblot) ([2]; SHRs at 16 weeks of age) | inhibition of cardiomyocyte cross-sectional area increases ([2]; SHRs at 16 weeks of age) | Iba1 staining (microglia/macrophages) in CC compared to vehicle [3] | number of SMI32 stained axonal ovoids in CC compared to Vehicle [3] | potency at increasing myogenic differentiation (number of myocytes) [4] | myoblast differentiation (numbers of microfibers, differentiated cells) [5] | potency in activating RXR receptors rather than RAR receptors (RXRα) | terminal body weights vs vehicle group [6] | total cell number and pyknotic cells compared to controls ([7]; OPC culture) | OPC differentiation into oligodendrocytes (EGFP positive cells) compared to negative control (DMSO) ([7]; OPCs from E14.5 PLP-EGFP mouse brains) | number of myogenically differentiated cells (skeletal myocytes) (Pluripotent P19 cells) | ratio of left ventricle weight to body weight ([2]; SHRs at 16 weeks of age)
N[C@@H](Cc1cc(I)c(Oc2ccc(O)c(I)c2)c(I)c1)C(=O)O [Compound T3, triiodothyronine, reference compound] | clear dose-responses in oligodendrocyte production |  |  |  |  |  |  |  |  |  |  |  |  | 
CC(/C=C/[C@@H]1C[C@]1(C)c1ccc2c(c1)C(C)(C)CCC2(C)C)=C\C(=O)O [IRX4204, 3,7-dimethyl-6(S),7(S)-methano,7-[1,1,4,4-tetramethyl-1,2,3,4-tetrahydronaphth-7-yl]2(E),4(E) heptadienoic acid] | clear dose-responses in oligodendrocyte production | greater inhibition of the increase in cardiac mass and wall thickness as compared to bexarotene-treated animals | up-regulated more | greater inhibition of cardiomyocyte cross-sectional area increases than treatment with bexarotene | no difference | trend towards decreased number of axonal ovoids but was not statistically different from the Vehicle | more potent at increasing differentiation than treatment with retinoic acid, bexarotene, or vehicle alone | increased numbers of microfibers as compared to cells treated with thyroxine or vehicle alone | > 1,000 fold | no significant difference | did not show any differences | significant increase in OPC differentiation into oligodendrocytes; also recorded: dose dependent increase in the number of the EGFP positive cells | higher number of myogenically differentiated cells as compared to cells treated with retinoic acid, bexarotene, or vehicle alone | 
C=C(c1ccc(C(=O)O)cc1)c1cc2c(cc1C)C(C)(C)CCC2(C)C [bexarotene, 4-[1-(3,5,5,8,8-pentamethyl-6,7-dihydronaphthalen-2-yl)ethenyl]benzoic acid, reference compound] |  | inhibition of the increase in cardiac mass and wall thickness as compared to vehicle-only treated SHRs |  |  |  |  |  |  |  |  |  |  |  | significantly lower ratio of left ventricle weight to body weight as compared to vehicle-only treated SHRs
